This is an account of results in patent publication US10166294B2, “Multifunctional forms of polyoxazoline copolymers and drug compositions comprising the same” (priority 2008, dated 2019).

Series [1] relates to platinum resistant ovarian cancer cells (A2780/DDPt). The settings on record: for Days to 3 Times Tumor Weight: median; for T − C (tumor growth delay): median time to 3 times original size, drug group minus control; for Persistence of tumor growth delay profiles: FIGS. 2A and 2B, dotted lines. The protocol: Female athymic (Ncr:Nu) mice were implanted subcutaneously with A2780/DDPt tumor fragments and the tumors were allowed to reach a weight range of 163 to 189 mg. […] One group of animals was treated with cisplatin at a dose of 8 mg/kg. The control group received normal saline. The animals were weighed and the tumors measured twice weekly after administration of the first drug injection.

For series [2], the system named is oropharyngeal carcinoma cancer cells (KB). The protocol: Female athymic (Ncr:Nu) mice were implanted subcutaneously with KB tumor fragments and the tumors were allowed to reach a weight range of 160 to 190 mg. […] The control group received normal saline. The animals were weighed and the tumors measured twice weekly after administration of the first drug injection.

Series [3] deals with human colorectal cancer cells (HT-29). Particulars: for Tumor Regression Complete / Tumor Regression Partial: n=10 mice; for Tumor Regression Complete: complete: unpalpable; for Tumor Regression Partial: partial: <50% of size on day 1; for T − C (tumor growth delay): median time to 2 times original size, drug group minus control; for Days to 2 Times Tumor Weight: median. Here is the method:
Female athymic (Ncr:Nu) mice were implanted subcutaneously with HT-29 tumor fragments and the tumors were allowed to reach a weight range of 162 to 188 mg. […] The control group received normal saline. The animals were weighed and the tumors measured twice weekly after administration of the first drug injection.

Where [4] appears, read: all doses (40, 60, 90 mg/kg i.v.).
Where [5] appears, read: any of the doses (40, 60, 90 mg/kg).
Where [6] appears, read: 40 mg/kg i.v. every fourth day x3.
Setting [7] is: 60 mg/kg i.v. every fourth day x3.
The mark [8] stands for this setting: 90 mg/kg i.v. every fourth day x3.
[9] abbreviates: 40, 60 or 90 mg/kg i.v. every fourth day x3.

Where “and” joins values, the source holds several entries; their conditions need not be identical. Equal values may be shown once. Read-outs that look alike come from different tables or passages of the source.

`N.N.[Cl][Pt][Cl]` [Cisplatin]: in series [1] (8 mg/kg), the “Days to 3 Times Tumor Weight” value came out at 8.9 days and the “T − C (tumor growth delay)” value was 0.5 days.

Take `CCc1c2c(nc3ccc(OC(=O)N4CCC(N5CCCCC5)CC4)cc13)-c1cc3c(c(=O)n1C2)COC(=O)[C@]3(O)CC` [Irinotecan]: the Tolerability result in series [2] (setting [4]), in series [1] (setting [4]) and in series [3] (setting [4]) was “well tolerated” each time. Also, the Tumor regression entry in series [2] (setting [5]) and in series [3] (setting [5]) was “not observed” in each case. For the same molecule, the “Maximum loss in body weight” value in series [2] (mouse, in vivo) came out at 2%; in series [1] (setting [9]) it was 2%; in series [3] (setting [9]) it was 8%. The “Days to 3 Times Tumor Weight” value came out at 13.0 days in series [1] (setting [6]), 16.4 days in series [1] (setting [7]) and 18.6 days in series [1] (setting [8]). Moreover, the “T − C (tumor growth delay)” value in series [1] (40 mg/kg) was determined as 4.6 days; in series [1] (60 mg/kg) it was 8.0 days; in series [1] (90 mg/kg), 10.2 days; in series [3] (40 mg/kg), 8.8 days. Also, the “Decrease in tumor growth compared to the control group” value in series [1] (40, 60, 90 mg/kg groups) is “did not show a statistically significant decrease”; in series [3] (40, 60, 90 mg/kg groups) it was “did not show a statistically significant decrease”. For the same molecule, in series [1], the “Persistence of tumor growth delay profiles” value is 14 days. The “Tumor Regression Complete” value in series [3] (setting [6]), in series [3] (setting [7]) and in series [3] (setting [8]) was 0 each time. The “Tumor Regression Partial” value in series [3] (setting [6]), in series [3] (setting [7]) and in series [3] (setting [8]) was 0 each time. Besides, the “Days to 2 Times Tumor Weight” value in series [3] (setting [7]) came out at 21.4 days.

Turning to “H-(Irino.HCl)10(EOZ)190-T-Folate [Folate-POZ-irinotecan]”, in series [2] (mouse, in vivo), the “Complete tumor regression, share of mice” value was 70% and 50%; the “Complete tumor regression, share of treated mice” value was more than 50%; the “Tumor growth delay (T-C value) compared to irinotecan” value is “significantly higher”.

Take “H-(Irino.HCl)10(EOZ)200-T-PA [POZ-irinotecan]”: the “Days to 3 Times Tumor Weight” value stood at 12.7 days in series [1] (setting [6]), 20.3 days in series [1] (setting [7]) and 36.3 days in series [1] (setting [8]). In addition, the “T − C (tumor growth delay)” value in series [1] (40 mg/kg) is given as 4.3 days; in series [1] (60 mg/kg) it was 11.9 days; in series [1] (90 mg/kg) it was 27.9 days; in series [3] (40 mg/kg), 23.4 days; in series [3] (60 mg/kg) it was more than 52 days; in series [3] (90 mg/kg), more than 52 days. Moreover, the “Tumor growth delay (T-C value) compared to irinotecan” value in series [1] (90 mg/kg dose, p<0.001) is reported as “significantly higher”; in series [3] (all 3 doses tested, p<0.001), “significantly higher”. For the same molecule, the “Persistence of tumor growth delay profiles” value in series [1] is “at least 32 days”. Also, the “Days to 2 Times Tumor Weight” value in series [3] (setting [6]) is 31.4 days; in series [3] (setting [7]) it was more than 60.0 days; in series [3] (setting [8]) it was more than 60.0 days. In addition, the “Tumor Regression Complete” value in series [3] (setting [6]) came to 0; in series [3] (setting [7]) it was 1; in series [3] (setting [8]), 7. For the same molecule, the “Median Duration of Regression” value in series [3] (setting [7]) is 18 days; in series [3] (setting [8]) it was 25 days.
